# Test results: paper PMC13429874, “ABHD2 activity is not required for the non-genomic action of progesterone on human sperm” (Human Reproduction (Oxford, England), 2026)
# B1: Truncated ABHD2 (ABHD2^L33–E425) (domain or fragment, human, UniProt P08910 33-425, looked up)
# chain: LNLKSPTAPPDLYFQDSGLSRFLLKSCPLLTKEYIPPLIWGKSGHIQTALYGKMGRVRSPHPYGHRKFITMSDGATSTFDLFEPLAEHCVGDDITMVICPGIANHSEKQYIRTFVDYAQKNGYRCAVLNHLGALPNIELTSPRMFTYGCTWEFGAMVNYIKKTYPLTQLVVVGFSLGGNIVCKYLGETQANQEKVLCCVSVCQGYSALRAQETFMQWDQCRRFYNFLMADNMKKIILSHRQALFGDHVKKPQSLEDTDLSRLYTATSLMQIDDNVMRKFHGYNSLKEYYEEESCMRYLHRIYVPLMLVNAADDPLVHESLLTIPKSLSEKRENVMFVLPLHGGHLGFFEGSVLFPEPLTWMDKLVVEYANAICQWERNKLQCSDTEQVEADLE
# notes: human ABHD2 (alpha/beta hydrolase domain-containing protein 2), Uniprot ID P08910, amino acids L33-E425; the predicted transmembrane domain (amino acids 1-32) is removed; No tag cleavage is described; Further construct details may be in the Supplementary Materials and Methods; also called ABHD2^L33-425; ABHD2 amino acids L33–E425; source: E. coli BL21(DE3)-R3-pRARE2, purified (nickel-sepharose, …)
# Columns and labels:
# [1] = target: T1, full-length human ABHD2 (ABHD2^FL) (Homo sapiens, UniProt P08910); assay: ABHD2^FL enzymatic activity assay with resorufin butyrate (RB) substrate; type: biochemical
# T1 construct: TEV site-eGFP-8xHis (C, cleaved yes); made in house; host or cells: SF9 insect cells (baculovirus)
# T1 sequence (P08910 1-425): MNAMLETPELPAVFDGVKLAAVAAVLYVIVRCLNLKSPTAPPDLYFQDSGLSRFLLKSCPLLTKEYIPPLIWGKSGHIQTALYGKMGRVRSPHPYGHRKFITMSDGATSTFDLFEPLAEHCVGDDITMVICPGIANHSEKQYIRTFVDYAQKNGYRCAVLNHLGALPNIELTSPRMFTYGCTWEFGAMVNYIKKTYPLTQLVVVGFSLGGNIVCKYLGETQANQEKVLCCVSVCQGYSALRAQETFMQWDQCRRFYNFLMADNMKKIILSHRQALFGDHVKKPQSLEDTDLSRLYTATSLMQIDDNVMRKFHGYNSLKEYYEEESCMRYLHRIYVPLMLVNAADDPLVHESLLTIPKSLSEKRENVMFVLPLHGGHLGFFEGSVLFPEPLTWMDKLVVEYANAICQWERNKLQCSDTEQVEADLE
# [2] = target: T1, full-length human ABHD2 (ABHD2^FL); assay: ABHD2^FL enzymatic activity assay with 7-HCA substrate; type: biochemical
# [3] = target: T2, ABHD2^L33–E425 (Homo sapiens, UniProt P08910); assay: Differential scanning fluorimetry (DSF) with purified ABHD2^L33–E425; type: binding
# T2 construct: expression for ABHD2 amino acids L33–E425, in which a predicted transmembrane domain (amino acids 1–32) is removed; His6-FLAG (N); made in house; host or cells: E. coli BL21(DE3)-R3-pRARE2
# T2 sequence (P08910 33-425): B1 chain
# [4] = target: T3, ABHD2^FL (Homo sapiens, UniProt P08910); assay: Differential scanning fluorimetry (DSF) with purified ABHD2^FL; type: binding; conditions: 20 µM
# T3 construct: TEV site-eGFP-8xHis (C, cleaved yes); made in house; host or cells: SF9 insect cells (baculovirus)
# T3 sequence (P08910 1-425): T1 sequence (P08910 1-425)
# [5] = test system: human sperm; assay: Sperm hyperactivation assay (CASA); type: cell-based; conditions: 3 µM, 30 min
# Protocol: Sperm hyperactivation was assessed in human sperm purified by density gradient centrifugation. Semen samples (n = 7) were allowed to liquefy for 15–30 min at 37°C, and up to 2 ml of liquified semen was layered onto a two-step GM501 gradient system (45%/90%; Gynemed; Sierksdorf, Germany) pre-equilibrated at 37°C. Gradients were centrifuged for 20 min at 400 × g (no break). The 90% pellet was collected, washed in SpermActive medium (Gynemed; composition per manufacturer: NaCl, KCl, MgSO4.7H2O, KH2PO4, 1.77 mM CaCl2.2H2O, D(+)-glucose anhydrous, sodium pyruvate, sodium lactate, EDTA, alanyl-glutamine, essential and non-essential amino acids, 25.71 mM NaHCO3, 15 mM HEPES, 5 g/l human serum albumin, 10 mg/l gentamicin, and phenol red), and incubated for at least 2 h at 37°C, 5% CO2.
# For compound testing, sperm suspensions with 7.5 × 10^6 sperm/ml in SpermActive were treated with either DMSO (vehicle) or 10 µM test compound. For basal and induced hyperactivation conditions, DMSO or progesterone (3 µM), respectively, was added. Samples were incubated for 30 min at 37°C, 5% CO2, before motility analysis.
# Motility was analyzed using a CASA system (CEROSII^TM Animal Motility, software version 1.16; Hamilton Thorne, Beverly, MA, USA), mounted on an Axiolab 5 microscope (Zeiss, Germany), equipped with a TPi-SX Thermal Plate (Tokai Hit; Shizuoka-ken, Japan) and a JAI CM-040-GE CCD camera (JAI; Tokyo, Japan). Leja slides (20 µm chamber depth; Leja Products B.V., Nieuw-Vennep, The Netherlands) were pre-warmed to 37°C, cleaned with lens paper, and loaded by capillary action with 6 µl sperm suspension; capillary correction was set to 1.3. Sperm tracks were recorded at 37°C using a 10× negative-phase objective, acquiring 60 frames at 60 Hz with 4 ms exposure and gain set to 600. For each sample and condition, 300–500 motile sperm from at least 10 non-overlapping fields were analyzed. Hyperactive sperm were identified using the SORT function with the following Boolean argument: VCL > 150 µm/s and LIN < 50% and ALH > 7 µm. For each sample and condition, the percentage of hyperactive sperm was normalized to the percentage of motile sperm, and the mean of two technical duplicates was reported.
# Statistical analysis was performed using GraphPad Prism 10 for Windows (version 10.6.1). Data normality was assessed using Shapiro–Wilk test. Differences between basal and induced hyperactivation were evaluated using a paired t-test, with effective pairing confirmed across all comparisons. P < 0.05 was considered statistically significant.
# [6] = target: T2, ABHD2^L33–E425; assay: ABHD2^L33-E425 fluorometric enzymatic activity assay with 7-HCA substrate; type: biochemical
# [7] = target: T4, human ABHD10 (Homo sapiens, UniProt Q9NUJ1); assay: ABHD10 colorimetric assay with p-nitrophenyl butyrate; type: biochemical; conditions: 10 µM compound, 500 µM p-NPB
# T4 construct: Constructs encoding amino acids T53—N306 of human ABHD10; His6-TEV site (N); made in house; host or cells: E. coli
# T4 sequence (Q9NUJ1 53-306): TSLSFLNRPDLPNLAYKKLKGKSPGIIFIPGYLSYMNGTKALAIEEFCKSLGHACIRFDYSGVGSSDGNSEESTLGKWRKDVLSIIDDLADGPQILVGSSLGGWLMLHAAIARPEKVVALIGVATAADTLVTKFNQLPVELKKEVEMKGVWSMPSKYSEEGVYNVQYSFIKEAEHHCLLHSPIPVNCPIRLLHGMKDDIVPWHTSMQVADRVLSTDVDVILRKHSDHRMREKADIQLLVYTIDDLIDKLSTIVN
# Protocol: (§1) Enzymatic activities of ABHD10 and ABHD11 were measured in a colorimetric assay using p-nitrophenyl butyrate (p-NPB) as substrate. Enzymes at 1500 nM ABHD10 and 125 nM ABHD11 in 20 mM HEPES pH 7.5, 150 mM NaCl, and 2% (v/v) DMSO were pre-incubated in 96-well plates with 50 µM test compound for 30 min at 4°C. Plates were then equilibrated at 37°C for 2 min, and reactions were initiated by adding 160 µl of pre-warmed substrate solution (same buffer with 625 µM p-NPB) to a total volume of 200 µl, yielding final assay concentrations of 300 nM ABHD10, 25 nM ABHD11, and 500 µM pNPB. The substrate solution was prepared immediately before addition to the enzyme mixtures. Absorbance at 405 nm was recorded on a SpectraMax iD3 plate reader (Molecular Devices) for 20 min with continuous monitoring at 30 s intervals.
# [8] = target: T5, human ABHD11 (Homo sapiens, UniProt Q8NFV4); assay: ABHD11 colorimetric assay with p-nitrophenyl butyrate; type: biochemical; conditions: 10 µM compound, 500 µM p-NPB
# T5 construct: residues V34—V315 of human ABHD11; His6-TEV site (N); made in house; host or cells: E. coli
# T5 sequence (Q8NFV4 25-306 limits assumed): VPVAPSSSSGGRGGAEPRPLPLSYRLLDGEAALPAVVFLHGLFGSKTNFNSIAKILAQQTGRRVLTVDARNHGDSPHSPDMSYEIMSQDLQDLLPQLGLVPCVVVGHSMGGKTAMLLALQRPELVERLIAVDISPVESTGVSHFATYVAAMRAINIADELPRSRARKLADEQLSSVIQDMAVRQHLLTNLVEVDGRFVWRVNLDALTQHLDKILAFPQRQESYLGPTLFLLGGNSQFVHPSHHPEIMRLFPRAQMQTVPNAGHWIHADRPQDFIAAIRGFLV
# Protocol: as §1
# [9] = target: the molecule itself; assay: SEC; HiLoad 16/600 Superdex 75 pg, final purification step after nickel affinity; pure fractions concentrated in 20 mM HEPES pH 8, 500 mM NaCl, 10% (v/v) glycerol, 1 mM TCEP
molecule,measurement,setting,value
"CCCC(=O)Oc1ccc2nc3ccc(=O)cc-3oc2c1 [RB, resorufin butyrate]",Km,"[1]; 25 nM ABHD2^FL, read-out: Km of substrate hydrolysis by ABHD2^FL",23 µM
CCCCCCCCCCC[C@@H](C[C@@H]1OC(=O)[C@H]1CCCCCC)OC(=O)[C@H](CC(C)C)NC=O [Orlistat],IC50,"[2]; 5 µM 7-HCA, read-out: IC50, ABHD2^FL, 7-HCA assay",969 nM
same,IC50,[1]; 15 µM RB,305 nM
CC(=O)[C@H]1CC[C@H]2[C@@H]3CCC4=CC(=O)CC[C@]4(C)[C@H]3CC[C@]12C [progesterone],effect on enzymatic activity of purified ABHD2^FL,"[2]; 7-HCA and RB substrates (Suppl. Fig. S4A,B), weak effects at ≥5 µM",did not alter
same,effect on heat-induced denaturation of ABHD2^L33–E425 (DSF binding),"[3]; 40 µM steroid, 30 min pre-incubation",did not affect
same,effect on heat-induced denaturation of ABHD2^FL (DSF binding),[4],did not affect
same,fraction of hyperactivated sperm upon stimulation,[5],increased
same,effect on enzymatic activity of purified ABHD2^L33–E425,"[6]; 5 µM steroid or triterpenoid, 300 nM 7-HCA",did not alter
O=C(N1CCCCC1)N1CCCCC1c1ccccc1 (stereo not drawn) [Compound 2],IC50,"[2]; Supplementary Table S2, read-out: IC50 measured in ABHD2^FL in the 7-HCA Assay",490 nM
same,"effect on melting temperature / thermal stability of ABHD2^L33-E425 (DSF), in words","[3]; 10 µM compound, 30 min pre-incubation",increased melting temperature
same,ΔTm shift for ABHD2^L33-425 determined by DSF,[3]; purified protein,13 °C
same,inhibition of ABHD10,[7],no detectable inhibition
same,IC50,"[6]; 10 nM enzyme, 10 µM 7-HCA, read-out: IC50 for ABHD2^L33-425, fluorometric assay using 7-HCA",320 nM
same,inhibition of ABHD11,[8],no detectable inhibition
B1,stoichiometry N,[9],4
